The AC50 is the midpoint of the concentration-response curve, whichever way the signal moves.

In one assay the target is PKR K410E (Homo sapiens, UniProt P30613, K410E). Briefly: PKR mutant assay (AC50), PKR K410E. It is filed as biochemical. The settings on record: PKR K410E mutant enzyme. In short, it runs like this: (§1)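 Compounds were tested from 100 μM final, 3-fold over 11 points, and held 60 min at room temperature with enzyme (40-400 ng/well wild-type, R510Q or K410E PKR). ADP 0.2-1.65 mM then started the reaction, with PEP 0.1-0.5 mM in pH 7.5 Tris/KCl/MgCl2 buffer. LDH/NADH (180 μM) coupled read-out was taken as A340 change, fitted to AC50.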
PKR K410E, sequence (P30613 whole entry K410E): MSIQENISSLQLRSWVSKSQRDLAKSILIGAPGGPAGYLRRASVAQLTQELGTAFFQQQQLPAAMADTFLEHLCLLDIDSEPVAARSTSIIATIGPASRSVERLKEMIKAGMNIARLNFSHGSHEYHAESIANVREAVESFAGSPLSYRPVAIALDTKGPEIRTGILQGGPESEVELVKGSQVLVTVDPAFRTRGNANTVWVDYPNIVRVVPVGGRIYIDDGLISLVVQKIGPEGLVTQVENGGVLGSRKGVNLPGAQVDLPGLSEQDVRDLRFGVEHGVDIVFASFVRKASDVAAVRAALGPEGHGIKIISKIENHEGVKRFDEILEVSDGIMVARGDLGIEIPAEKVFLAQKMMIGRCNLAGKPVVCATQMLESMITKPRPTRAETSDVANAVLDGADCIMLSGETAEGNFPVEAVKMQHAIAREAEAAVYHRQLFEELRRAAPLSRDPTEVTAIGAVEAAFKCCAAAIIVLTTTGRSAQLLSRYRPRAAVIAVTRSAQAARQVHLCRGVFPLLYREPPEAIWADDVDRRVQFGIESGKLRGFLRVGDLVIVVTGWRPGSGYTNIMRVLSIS

A further assay deals with PKR R510Q (Homo sapiens, UniProt P30613, R510Q). Briefly: PKR mutant assay (AC50), PKR R510Q. Type of assay: biochemical. Conditions: PKR R510Q mutant enzyme; read-out: PK R510Q AC50. In outline: as §1
PKR R510Q, sequence (P30613 whole entry R510Q): as the sequence (P30613 whole entry K410E) above, with E410K, R510Q counted along it
For assay [1], the target named is T1, wild type PKR (Homo sapiens, UniProt P30613). Briefly: Cell based ATP assay in purified red blood cells. The arrangement: endogenous in cells; host or cells: purified red blood cells from blood of healthy volunteers. Conditions: RBCs, overnight at 37° C., ATP levels by Cell-Titer-Glo. In short, it runs like this:
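ATP content was measured by CellTiter-Glo after overnight exposure to compound at 37 °C. Cells were purified red blood cells from healthy donors, filtered to remove leukocytes and suspended at 1×10^7 cells/mL in AGAM medium. Compounds were serially diluted 1:4, with 0.1% DMSO final.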

Assay [2] deals with T1, wild type PKR. Nature of the assay: PKR mutant assay (AC50), wild type PKR. Type of assay: biochemical. The settings on record: wild type PKR enzyme; read-out: PKR WT AC50. In outline:
as §1

T1 sequence (P30613 whole entry): as the sequence (P30613 whole entry K410E) above, with E410K counted along it

For the compound `CC(=O)Nc1ccc(F)c(Cn2ncc3c4sc(Cn5ccnc5)nc4n(C)c3c2=O)c1`, the AC50 on PKR K410E is over 800 nM; at PKR R510Q, over 800 nM; on wild type PKR [1], over 1000 nM; on wild type PKR [2], over 800 nM.
On to `Cn1c2nc(Cc3cc[nH]n3)sc2c2cnn(Cc3ccc(C#N)cn3)c(=O)c21`, for which the AC50 is under 300 nM at PKR K410E, under 300 nM on PKR R510Q, at most 1000 nM on wild type PKR [1] and 301 to 800 nM on wild type PKR [2].
As to `Cn1c2nc(Cc3cc[nH]n3)sc2c2cnn(Cc3nc[nH]c3N)c(=O)c21`, the AC50 on PKR K410E was 301 to 800 nM; at PKR R510Q, 301 to 800 nM; at wild type PKR [1] it was over 1000 nM; on wild type PKR [2], 301 to 800 nM.
Turning to `Cn1c2nc(Cc3cc[nH]n3)sc2c2cnn(Cc3nccs3)c(=O)c21`, the AC50 on PKR K410E was under 300 nM; on PKR R510Q it was under 300 nM; at wild type PKR [1], at most 1000 nM; at wild type PKR [2] it was under 300 nM.
On to `Cn1c2nc(Cc3cc[nH]n3)sc2c2cnn(Cc3coc(C(N)=O)n3)c(=O)c21`, for which the AC50 at PKR K410E is over 800 nM; at PKR R510Q, over 800 nM; at wild type PKR [1], at most 1000 nM; at wild type PKR [2], over 800 nM.
Consider `Cn1c2nc(Cc3cc[nH]n3)sc2c2cnn(Cc3ccncc3)c(=O)c21`, for which the AC50 at PKR K410E is under 300 nM; on PKR R510Q, under 300 nM; at wild type PKR [1] it was at most 1000 nM; on wild type PKR [2] it was under 300 nM.
With `Cn1cc(Cn2ncc3c4sc(Cc5cc[nH]n5)nc4n(C)c3c2=O)nn1`, the AC50 at PKR K410E is under 300 nM; on PKR R510Q, under 300 nM; on wild type PKR [1] it was at most 1000 nM; on wild type PKR [2], under 300 nM.
With `Cn1c2nc(Cc3ccccn3)sc2c2cnn(Cc3c[nH]nn3)c(=O)c21`, the AC50 at PKR K410E was under 300 nM; on PKR R510Q, under 300 nM; on wild type PKR [1], at most 1000 nM; on wild type PKR [2], under 300 nM.
For the compound `Cn1c2nc(Cc3n[nH]cc3F)sc2c2cnn(Cc3n[nH]cc3C#N)c(=O)c21`, the AC50 at PKR K410E was under 300 nM; on PKR R510Q, under 300 nM; at wild type PKR [1], at most 1000 nM; on wild type PKR [2], under 300 nM.
For the compound `Cn1c2nc(Cc3cc[nH]n3)sc2c2cnn(Cc3ncsc3C#N)c(=O)c21`, the AC50 is under 300 nM at PKR K410E, under 300 nM on PKR R510Q, at most 1000 nM at wild type PKR [1] and under 300 nM at wild type PKR [2].
Consider `Cn1c2nc(Cc3cc[nH]n3)sc2c2cnn(Cc3ccn[nH]3)c(=O)c21`, for which the AC50 on PKR K410E was under 300 nM; at PKR R510Q, under 300 nM; at wild type PKR [1], at most 1000 nM; on wild type PKR [2], under 300 nM.
In the case of `Cn1c2nc(Cc3cc[nH]n3)sc2c2cnn(Cc3nc(N)ccc3F)c(=O)c21`, the AC50 at PKR K410E was under 300 nM; at PKR R510Q it was under 300 nM; on wild type PKR [1] it was at most 1000 nM; at wild type PKR [2], under 300 nM.
As for `Cn1ccc(Cn2ncc3c4sc(Cc5cscn5)nc4n(C)c3c2=O)n1`, the AC50 at PKR K410E is under 300 nM; at PKR R510Q, under 300 nM; on wild type PKR [1], at most 1000 nM; at wild type PKR [2], under 300 nM.
Regarding `Cn1ccc(Cc2nc3c(s2)c2cnn(Cc4ccn(C)n4)c(=O)c2n3C)n1`, the AC50 was under 300 nM at PKR K410E, under 300 nM on PKR R510Q, at most 1000 nM at wild type PKR [1] and under 300 nM at wild type PKR [2].
Take `Cn1cc(F)c(Cn2ncc3c4sc(Cc5cc[nH]n5)nc4n(C)c3c2=O)n1`: the concentration at half-maximal activity (AC50) on PKR K410E was under 300 nM; at PKR R510Q it was under 300 nM; at wild type PKR [1], at most 1000 nM; on wild type PKR [2], under 300 nM.
On to `Cn1c2nc(Cc3cc[nH]n3)sc2c2cnn(Cc3cc(Cl)[nH]n3)c(=O)c21`, for which the AC50 at PKR K410E is under 300 nM; on PKR R510Q it was under 300 nM; at wild type PKR [1] it was at most 1000 nM; on wild type PKR [2], under 300 nM.
On to `Cc1ccc(Cn2ncc3c4sc(Cc5cc[nH]n5)nc4n(C)c3c2=O)nc1N`, for which the AC50 at PKR K410E is under 300 nM; at PKR R510Q, under 300 nM; on wild type PKR [1], at most 1000 nM; on wild type PKR [2], under 300 nM.
In the case of `Cn1c2nc(Cc3n[nH]cc3F)sc2c2cnn(Cc3n[nH]cc3N)c(=O)c21`, the AC50 is under 300 nM at PKR K410E, under 300 nM at PKR R510Q, at most 1000 nM on wild type PKR [1] and under 300 nM at wild type PKR [2].
On to `Cn1c2nc(Cc3cc[nH]n3)sc2c2cnn(Cc3ccnc(N)n3)c(=O)c21`, for which the AC50 was under 300 nM at PKR K410E, under 300 nM at PKR R510Q, at most 1000 nM on wild type PKR [1] and under 300 nM at wild type PKR [2].
Turning to `Cn1c2nc(Cc3ncsc3F)sc2c2cnn(Cc3cc[nH]n3)c(=O)c21`, the AC50 is under 300 nM at PKR K410E, under 300 nM at PKR R510Q, at most 1000 nM on wild type PKR [1] and under 300 nM on wild type PKR [2].

Source of the values: patent US11040036B2, “Pyruvate kinase activators for use in treating blood disorders” (Agios Pharmaceuticals, Inc., priority 2017, dated 2021).
